The target in assay [1] is human dopamine D2 receptor (hD2R) (Homo sapiens, UniProt P14416). Nature of the assay: Human D2 receptor binding assay ([^3H]-Spiperone). The conditions noted are these: CHO cells expressing hD2R, geometric mean of 2-5 determinations unless marked b (single determination).
For assay [2], the target named is human dopamine D3 receptor (hD3R) (Homo sapiens, UniProt P35462). Nature of the assay: Human D3 receptor binding assay ([^3H]-7-OH-DPAT). The conditions noted are these: CHO cells expressing hD3R, geometric mean of 2-5 determinations unless marked b (single determination), read-out: hD3 in CHO cells Ki.
Chain of human dopamine D3 receptor (hD3R) (P35462 whole entry): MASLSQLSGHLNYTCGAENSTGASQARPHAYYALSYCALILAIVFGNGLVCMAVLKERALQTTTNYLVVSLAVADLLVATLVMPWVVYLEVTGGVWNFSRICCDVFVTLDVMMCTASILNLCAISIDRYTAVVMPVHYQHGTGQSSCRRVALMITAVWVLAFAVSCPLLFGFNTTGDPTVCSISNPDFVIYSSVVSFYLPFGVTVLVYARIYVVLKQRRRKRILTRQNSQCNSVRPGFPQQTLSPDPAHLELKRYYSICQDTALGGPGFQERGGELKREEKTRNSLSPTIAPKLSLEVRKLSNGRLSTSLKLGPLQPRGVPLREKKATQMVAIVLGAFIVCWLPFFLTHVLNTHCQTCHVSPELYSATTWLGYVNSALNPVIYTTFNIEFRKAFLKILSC

Structures are written as SMILES. A value given as a limit tells only on which side of the number the result lay.

Chain of human dopamine D2 receptor (hD2R) (P14416 whole entry): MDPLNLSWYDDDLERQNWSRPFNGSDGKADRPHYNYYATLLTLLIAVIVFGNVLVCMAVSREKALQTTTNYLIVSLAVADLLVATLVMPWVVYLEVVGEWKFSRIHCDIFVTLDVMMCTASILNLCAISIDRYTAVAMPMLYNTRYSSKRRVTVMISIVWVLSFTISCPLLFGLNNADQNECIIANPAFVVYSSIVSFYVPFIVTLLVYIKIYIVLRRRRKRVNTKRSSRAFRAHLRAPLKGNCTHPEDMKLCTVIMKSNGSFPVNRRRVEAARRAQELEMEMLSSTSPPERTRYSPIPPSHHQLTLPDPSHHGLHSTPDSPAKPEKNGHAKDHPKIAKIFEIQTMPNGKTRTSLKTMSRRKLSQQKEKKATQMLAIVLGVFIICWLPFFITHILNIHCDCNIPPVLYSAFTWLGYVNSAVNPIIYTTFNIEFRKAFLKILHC

A word on the Ki: it is a dissociation constant, usually derived from enzyme kinetics or from competition with a known ligand. As for `COc1nc2c(cc1NS(=O)(=O)c1ccc([C@H]3CCCCO3)c(F)c1)CCN(C)CC2` [Example 110, 3-fluoro-N-(2-methoxy-7-methyl-6,7,8,9-tetrahydro-5H-pyrido[2,3-d]azepin-3-yl)-4-[(2R)-tetrahydro-2H-pyran-2-yl]benzenesulfonamide], the Ki in assay [1] is 0.025 µM; in assay [2], 0.00127 µM.

Regarding `COc1nc2c(cc1NS(=O)(=O)c1ccc([C@@H]3CCCCO3)c(F)c1)CCN(C)CC2` [Example 111, 3-fluoro-N-(2-methoxy-7-methyl-6,7,8,9-tetrahydro-5H-pyrido[2,3-d]azepin-3-yl)-4-[(2S)-tetrahydro-2H-pyran-2-yl]benzenesulfonamide], the Ki in assay [1] stood at 0.1 µM; in assay [2], 0.0023 µM.

As for `CCN1CCc2cc(NS(=O)(=O)c3ccc(C4(F)CCCCC4)nc3)c(OC)nc2CC1` [Example 112, N-(7-ethyl-2-methoxy-6,7,8,9-tetrahydro-5H-pyrido[2,3-d]azepin-3-yl)-6-(1-fluorocyclohexyl)pyridine-3-sulfonamide], the results for the Ki in assay [1] and in assay [2] were 0.0457 µM and 0.00236 µM, respectively.

For the compound `COc1nc2c(cc1NS(=O)(=O)c1ccc(C3CCC3)nc1)CCN(C)CC2` [Example 113, 6-cyclobutyl-N-(2-methoxy-7-methyl-6,7,8,9-tetrahydro-5H-pyrido[2,3-d]azepin-3-yl)pyridine-3-sulfonamide], the inhibitory constant (Ki) in assay [1] stood at 0.143 µM; in assay [2], 0.00394 µM.

Consider `CCN1CCc2cc(NS(=O)(=O)c3ccc(C4CCCCC4)nc3)c(OC)nc2CC1` [Example 114, 6-cyclohexyl-N-(7-ethyl-2-methoxy-6,7,8,9-tetrahydro-5H-pyrido[2,3-d]azepin-3-yl)pyridine-3-sulfonamide], for which the Ki amounted to 0.146 µM in assay [1] and 0.00315 µM in assay [2].

In the case of `COc1nc2c(cc1NS(=O)(=O)c1ccc(C)cc1)CCN(CCCF)CC2` [Example 115, N-[7-(3-fluoropropyl)-2-methoxy-6,7,8,9-tetrahydro-5H-pyrido[2,3-d]azepin-3-yl]-4-methylbenzenesulfonamide], the Ki in assay [1] is 0.213 µM; in assay [2], 0.0148 µM.

For `COc1nc2c(cc1NS(=O)(=O)c1cnc(OC3CCC3)nc1)CCN(C)CC2` [Example 116, 2-(cyclobutyloxy)-N-(2-methoxy-7-methyl-6,7,8,9-tetrahydro-5H-pyrido[2,3-d]azepin-3-yl)pyrimidine-5-sulfonamide], the Ki is 0.379 µM in assay [1] and 0.00717 µM in assay [2].

With `COc1nc2c(cc1NS(=O)(=O)c1cnc(OC(C)(C)C)nc1)CCN(C)CC2` [Example 117, 2-tert-butoxy-N-(2-methoxy-7-methyl-6,7,8,9-tetrahydro-5H-pyrido[2,3-d]azepin-3-yl)pyrimidine-5-sulfonamide], the Ki in assay [1] worked out at 0.464 µM; in assay [2] it was 0.00993 µM.

As to `CCCc1ccc(S(=O)(=O)Nc2cc3c(nc2OC)CCN(C)CC3)cc1` [Example 118, N-(2-methoxy-7-methyl-6,7,8,9-tetrahydro-5H-pyrido[2,3-d]azepin-3-yl)-4-propylbenzenesulfonamide], the Ki in assay [1] turned out to be 0.00541 µM; in assay [2], 0.00057 µM.

Turning to `CCN1CCc2cc(NS(=O)(=O)c3ccc([C@H]4C[C@@H](OCCF)C4)cc3)c(OC)nc2CC1` [Example 119, N-(7-ethyl-2-methoxy-6,7,8,9-tetrahydro-5H-pyrido[2,3-d]azepin-3-yl)-4-[cis-3-(2-fluoroethoxy)cyclobutyl]benzenesulfonamide], the Ki in assay [1] was 0.0899 µM; in assay [2], 0.00242 µM.

For `CCO[C@H]1C[C@@H](c2ccc(S(=O)(=O)Nc3cc4c(nc3OC)CCN(CC)CC4)cc2)C1` [Example 120, 4-(cis-3-ethoxycyclobutyl)-N-(7-ethyl-2-methoxy-6,7,8,9-tetrahydro-5H-pyrido[2,3-d]azepin-3-yl)benzenesulfonamide], the Ki in assay [1] came out at 0.054 µM; in assay [2], 0.00128 µM.

As for `CCOC1CC(c2ccc(S(=O)(=O)Nc3cc4c(nc3OC)CCN(CC)CC4)cc2)C1` (stereo not drawn) [Example 121, 4-(trans-3-ethoxycycyclobutyl)-N-(7-ethyl-2-methoxy-6,7,8,9-tetrahydro-5H-pyrido[2,3-d]azepin-3-yl)benzenesulfonamide], the Ki is 0.0398 µM in assay [1] and 0.00253 µM in assay [2].

Regarding `COc1nc2c(cc1NS(=O)(=O)c1ccc(OC3CCCC3)nc1)CCN(CCCF)CC2` [Example 122, 6-(cyclopentyloxy)-N-[7-(3-fluoropropyl)-2-methoxy-6,7,8,9-tetrahydro-5H-pyrido[2,3-d]azepin-3-yl]pyridine-3-sulfonamide], the Ki in assay [1] was found to be 0.128 µM; in assay [2], 0.00458 µM.

`COc1nc2c(cc1NS(=O)(=O)c1cnc(C3CCCC3)nc1)CCN(C)CC2` [Example 123, 2-cyclopentyl-N-(2-methoxy-7-methyl-6,7,8,9-tetrahydro-5H-pyrido[2,3-d]azepin-3-yl)pyrimidine-5-sulfonamide]: the results for the Ki in assay [1] and in assay [2] were 0.164 µM and 0.0129 µM, respectively.

Turning to `COc1nc2c(cc1NS(=O)(=O)c1cnc(OC3CCCC3)c(C)c1)CCN(C)CC2` [Example 124, 6-(cyclopentyloxy)-N-(2-methoxy-7-methyl-6,7,8,9-tetrahydro-5H-pyrido[2,3-d]azepin-3-yl)-5-methylpyridine-3-sulfonamide], the Ki in assay [1] came to 0.00389 µM; in assay [2], 0.00079 µM.

Take `CCN1CCc2cc(NS(=O)(=O)c3cnc(OC4CCCC4)c(C)c3)c(OC)nc2CC1` [Example 125, 6-(cyclopentyloxy)-N-(7-ethyl-2-methoxy-6,7,8,9-tetrahydro-5H-pyrido[2,3-d]azepin-3-yl)-5-methylpyridine-3-sulfonamide]: the Ki in assay [1] came to 0.00405 µM; in assay [2], 0.00146 µM.

As to `COc1nc2c(cc1NS(=O)(=O)c1cnc(OC3CCC3)c(C)c1)CCN(C)CC2` [Example 126, 6-(cyclobutyloxy)-N-(2-methoxy-7-methyl-6,7,8,9-tetrahydro-5H-pyrido[2,3-d]azepin-3-yl)-5-methylpyridine-3-sulfonamide], the Ki in assay [1] stood at 0.0109 µM; in assay [2], 0.00185 µM.

On to `COc1nc2c(cc1NS(=O)(=O)c1cnc(C3CCCCC3)nc1)CCN(C)CC2` [Example 127, 2-cyclohexyl-N-(2-methoxy-7-methyl-6,7,8,9-tetrahydro-5H-pyrido[2,3-d]azepin-3-yl)pyrimidine-5-sulfonamide], for which the Ki in assay [1] is 0.457 µM; in assay [2], 0.0322 µM.

Turning to `COc1nc2c(cc1NS(=O)(=O)c1ccc(OC3CCCC3)nc1C)CCN(C)CC2` [Example 128, 6-(cyclopentyloxy)-N-(2-methoxy-7-methyl-6,7,8,9-tetrahydro-5H-pyrido[2,3-d]azepin-3-yl)-2-methylpyridine-3-sulfonamide], the Ki in assay [1] worked out at 0.00407 µM; in assay [2] it was 0.00124 µM.

For the compound `COc1nc2c(cc1NS(=O)(=O)c1ccc([C@H]3CCCCO3)nc1)CCN(C)CC2` [Example 129, N-(2-methoxy-7-methyl-6,7,8,9-tetrahydro-5H-pyrido[2,3-d]azepin-3-yl)-6-[(2R)-tetrahydro-2H-pyran-2-yl]pyridine-3-sulfonamide], the Ki amounted to 0.786 µM in assay [1] and 0.0167 µM in assay [2].

With `COc1nc2c(cc1NS(=O)(=O)c1cnc(OC3CCCC3)c(F)c1)CCN(C)CC2` [Example 130, 6-(cyclopentyloxy)-5-fluoro-N-(2-methoxy-7-methyl-6,7,8,9-tetrahydro-5H-pyrido[2,3-d]azepin-3-yl)pyridine-3-sulfonamide], the Ki in assay [1] is 0.0252 µM; in assay [2] it was 0.00169 µM.

In the case of `COc1nc2c(cc1NS(=O)(=O)c1ccc(CC3CCCC3)nc1)CCN(C)CC2` [Example 131, 6-(cyclopentylmethyl)-N-(2-methoxy-7-methyl-6,7,8,9-tetrahydro-5H-pyrido[2,3-d]azepin-3-yl)pyridine-3-sulfonamide], the Ki came to 0.0361 µM in assay [1] and 0.0023 µM in assay [2].

On to `CCO[C@H]1C[C@@](F)(c2ccc(S(=O)(=O)Nc3cc4c(nc3OC)CCN(C)CC4)cc2)C1` [Example 132, 4-(trans-3-ethoxy-1-fluorocyclobutyl)-N-(2-methoxy-7-methyl-6,7,8,9-tetrahydro-5H-pyrido[2,3-d]azepin-3-yl)benzenesulfonamide], for which the results for the inhibition constant Ki in assay [1] and in assay [2] were 0.367 µM and 0.00223 µM, respectively.

Regarding `COc1nc2c(cc1NS(=O)(=O)c1ccc([C@]3(F)C[C@H](OCCF)C3)cc1)CCN(C)CC2` [Example 133, 4-[trans-1-fluoro-3-(2-fluoroethoxy)cyclobutyl]-N-(2-methoxy-7-methyl-6,7,8,9-tetrahydro-5H-pyrido[2,3-d]azepin-3-yl)benzenesulfonamide], the Ki was 0.428 µM in assay [1] and 0.00247 µM in assay [2].

As for `CCO[C@H]1C[C@H](c2ccc(S(=O)(=O)Nc3cc4c(nc3OC)CCN(C)CC4)cn2)C1` [Example 134, 6-(trans-3-ethoxycyclobutyl)-N-(2-methoxy-7-methyl-6,7,8,9-tetrahydro-5H-pyrido[2,3-d]azepin-3-yl)pyridine-3-sulfonamide], the Ki in assay [1] is 1.81 µM; in assay [2], 0.0148 µM.

For `CCO[C@H]1C[C@@H](c2ccc(S(=O)(=O)Nc3cc4c(nc3OC)CCN(C)CC4)cn2)C1` [Example 135, 6-(cis-3-ethoxycyclobutyl)-N-(2-methoxy-7-methyl-6,7,8,9-tetrahydro-5H-pyrido[2,3-d]azepin-3-yl)pyridine-3-sulfonamide], the Ki was more than 3.14 µM in assay [1] and 0.0236 µM in assay [2].

As to `COc1nc2c(cc1NS(=O)(=O)c1ccc([C@]3(F)C[C@H](C)C3)nc1)CCN(C)CC2` [Example 136, 6-(trans-1-fluoro-3-methylcyclobutyl)-N-(2-methoxy-7-methyl-6,7,8,9-tetrahydro-5H-pyrido[2,3-d]azepin-3-yl)pyridine-3-sulfonamide], the Ki in assay [1] was found to be 1.22 µM; in assay [2], 0.00746 µM.

As for `CCOc1ccc(S(=O)(=O)Nc2cc3c(nc2C)CCN(CC)CC3)cc1` [Example 137, 4-Ethoxy-N-(7-ethyl-2-methyl-6,7,8,9-tetrahydro-5H-pyrido[2,3-d]azepin-3-yl)benzenesulfonamide], the Ki in assay [1] was more than 4.19 µM; in assay [2] it was 0.152 µM.

Source of the values: patent US10590128B2, “6,7,8,9-tetrahydro-5H-pyrido[2,3-d]azepine dopamine D3 ligands” (Pfizer Inc., priority 2016, dated 2020).
